Measured values from patent publication US5140039A, “Aminomethyl-thiochroman compounds” (Abbott Laboratories, priority 1991, dated 1992).
Structures can show the parent of a compound that is named as a salt.

Experiments:
alpha-1-receptor = biological target: T1, alpha-1-receptor (Rattus norvegicus, UniProt P15823); assay: radioligand binding, [3H]-prazosin, rat liver homogenates
T1 construct: rat liver homogenates; from tissue; host or cells: rat liver homogenate
T1 sequence (P15823 1-515): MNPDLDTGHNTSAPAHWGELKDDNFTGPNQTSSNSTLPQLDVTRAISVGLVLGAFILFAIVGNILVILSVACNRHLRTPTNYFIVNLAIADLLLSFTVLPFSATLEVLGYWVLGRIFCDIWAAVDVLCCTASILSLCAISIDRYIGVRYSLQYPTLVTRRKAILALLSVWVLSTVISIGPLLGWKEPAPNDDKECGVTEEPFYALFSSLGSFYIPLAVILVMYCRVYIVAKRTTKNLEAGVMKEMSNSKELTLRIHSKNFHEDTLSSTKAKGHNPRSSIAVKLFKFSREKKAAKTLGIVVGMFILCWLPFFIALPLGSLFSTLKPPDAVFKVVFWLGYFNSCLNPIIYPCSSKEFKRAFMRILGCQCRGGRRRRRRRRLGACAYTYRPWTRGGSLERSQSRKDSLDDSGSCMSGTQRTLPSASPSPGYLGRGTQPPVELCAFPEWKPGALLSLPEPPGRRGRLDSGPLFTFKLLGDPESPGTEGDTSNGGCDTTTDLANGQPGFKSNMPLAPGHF
Description: (§1) The compounds were assessed for alpha-adrenergic receptor subtype selectivity by use of radioligand binding techniques as described previously (DeBernardis et.al. J. Med. Chem. 28 1398 (1985)). Affinity for the alpha-1-receptor was assessed using rat liver homogenates and the radioligand [^3 H]-prazosin; whereas for the alpha-2-receptor, rat cerebral cortices and the radioligand [^3 H]-rauwolscine were utilized. Results obtained from the binding studies are shown in Table 1 for a representative sample of compounds disclosed herein.

alpha-2-receptor = assay: radioligand binding, [3H]-rauwolscine, rat cerebral cortices; conditions: for Ki: rat cerebral cortices, [3H]-rauwolscine; for alpha-2-Selectivity Ki alpha-1/Ki alpha-2: ratio Ki alpha-1/Ki alpha-2
Description: as §1

Row | Ki (alpha-1-receptor) [nM] | Ki (alpha-2-receptor) [nM] | alpha-2-Selectivity Ki alpha-1/Ki alpha-2 (alpha-2-receptor) | Compound
1 | 260 | 24 | 11 | COc1ccc2c(c1)OCCC2CN(C)CCc1cccc(Cl)c1 (stereo not drawn) [Example 4, 4-((N-Methylamino)methyl-N-(2-(m-chlorophenyl)ethyl))-7-methoxy chroman hydrochloride]
2 | 1140 | 34 | 33 | CCN(CCc1cccc(Cl)c1)CC1CCOc2cc(OC)ccc21 (stereo not drawn) [Example 6, 4-((N-Ethylamino)methyl-N-(2-(m-chlorophenyl)ethyl))-7-methoxy chroman hydrochloride]
3 | 590 | 10 | 59 | COc1ccc2c(c1)OCCC2CN(C)CCc1cccs1 (stereo not drawn) [Example 7, 4-((N-Methylamino)methyl-N-(2-(2-thienyl)ethyl))-7-methoxy chroman hydrochloride]
4 | 96 | 3 | 32 | COc1ccc2c(c1OC)SCCC2CN(C)CCc1cccs1 (stereo not drawn) [Example 13, 4-((N-Methylamino)methyl-N-(2-(2-thienyl)ethyl))-7,8-dimethoxy thiochroman hydrochloride]
5 | 550 | 3 | 183 | COc1ccc2c(c1OC)OCCC2CN(C)CCc1cccc(F)c1 (stereo not drawn) [Example 25, 4-(N-Methylamino)methyl-N-(2-(m-fluorophenyl)ethyl))-7,8-dimethoxy chroman hydrochloride]
6 | 10000 | 5.8 | 1724 | COc1ccc2c(c1OC)OCCC2CN(C)CCc1cccs1 (stereo not drawn) [Example 26, 4-((N-Methylamino)methyl-N-(2-(2-thienyl)ethyl))-7,8-dimethoxy chroman hydrochloride]
7 | 1000 | 34 | 29 | CCN(CCc1cccs1)CC1CCOc2c1ccc(OC)c2C (stereo not drawn) [Example 28, 4-((N-Ethylamino)methyl-N-(20(2-thienyl)ethyl)-7-methoxy-8-methylchroman hydrochloride]
